Here are results for two compounds from patent publication US20210130460A1, “ANTI-CD19 THERAPY IN COMBINATION WITH LENALIDOMIDE FOR THE TREATMENT OF LEUKEMIA OR LYMPHOMA” (MORPHOSYS AG, priority 2019, published 2021).

Read-outs that look alike come from different tables or passages of the source.

For data set [1], the system named is relapsed or refractory DLBCL. As to conditions: cited from earlier work.
A short description of data set [2]: L-MIND phase 2 study: safety (adverse events).
Method: MOR00208 was administered intravenously at a dose of 12 mg/kg, over approximately 2 hours. For cycles 1 to 3, MOR00208 was administered weekly on days 1, 8, 15, and 22; an additional loading dose was administered on day 4 of cycle 1. […] Patients self-administered lenalidomide orally, starting with 25 mg daily on days 1-21 of each 28-day cycle. A step-wise dose reduction (decrease by 5 mg/day in each step, only once per cycle, without re-escalation) of lenalidomide was permitted in case of protocol-defined toxicities.
Efficacy analyses are based on the full analysis set comprising all patients who received at least one dose of both MOR00208 and lenalidomide; safety analyses were based on those who received at least one dose of either study medication.

Consider `Nc1cccc2c1CN(C1CCC(=O)NC1=O)C2=O` (stereo not shown) [lenalidomide], for which the Objective response rate in data set [1] (prior studies in similar populations) is on record as 28%.

For “MOR00208: Fc-enhanced humanized anti-CD19 monoclonal antibody, sequences in Table 1 (SEQ ID NO: 1-12)”, in data set [1] (single-agent, relapsed or refractory DLBCL (Ann. Oncol. 29, 1266-1272, 2018)), the Objective response rate is 26%. Further, the “Grade 3 or 4 neutropenia” value in data set [2] (MOR00208 monotherapy after discontinuation of lenalidomide, 6/51 patients) came to 11.8%. Also, the “Adverse events of grade 3 or 4” value in data set [2] (after lenalidomide discontinuation, 15/51 patients) stood at 29.4%.
